# Data as given in patent US10662187B2, “Bruton's tyrosine kinase inhibitors” (Zibo Biopolar Changsheng Pharmaceutical Co. Ltd., priority 2016, dated 2020).
# pIC50: −log10 of the molar value.
# Target: BTK (Homo sapiens (Human), UniProt Q06187)
# Assay: Btk kinase assay (HTRF)
# Assay type: biochemical
# Settings: [ATP]=80 μM, BTK=3.4 nM; read-out: BTK Inhibition
# Experimental: Btk Kinase Assay and Other Kinases Assay Btk kinase activity was determined using a homogenous time resolved fluorescence (HTRF) methodology. Measurements were performed in a reaction volume of 15 μL using 384-well assay plates. Kinase enzyme, inhibitor, ATP and 1 μM peptide substrate were incubated in a reaction buffer compose of Hepes 50 mM (pH7.0), NaN3 0.02%, BSA 0.01%, Orthocanadate 0.1 mM. […] For each compound, enzyme activity as measured at various concentrations of compound, Negative control reactions were performed in the absence of inhibitor in two replicates and eight no enzyme controls were used to determine baseline fluorescence levels.
# Sequence of BTK (Q06187 whole entry, species assumed): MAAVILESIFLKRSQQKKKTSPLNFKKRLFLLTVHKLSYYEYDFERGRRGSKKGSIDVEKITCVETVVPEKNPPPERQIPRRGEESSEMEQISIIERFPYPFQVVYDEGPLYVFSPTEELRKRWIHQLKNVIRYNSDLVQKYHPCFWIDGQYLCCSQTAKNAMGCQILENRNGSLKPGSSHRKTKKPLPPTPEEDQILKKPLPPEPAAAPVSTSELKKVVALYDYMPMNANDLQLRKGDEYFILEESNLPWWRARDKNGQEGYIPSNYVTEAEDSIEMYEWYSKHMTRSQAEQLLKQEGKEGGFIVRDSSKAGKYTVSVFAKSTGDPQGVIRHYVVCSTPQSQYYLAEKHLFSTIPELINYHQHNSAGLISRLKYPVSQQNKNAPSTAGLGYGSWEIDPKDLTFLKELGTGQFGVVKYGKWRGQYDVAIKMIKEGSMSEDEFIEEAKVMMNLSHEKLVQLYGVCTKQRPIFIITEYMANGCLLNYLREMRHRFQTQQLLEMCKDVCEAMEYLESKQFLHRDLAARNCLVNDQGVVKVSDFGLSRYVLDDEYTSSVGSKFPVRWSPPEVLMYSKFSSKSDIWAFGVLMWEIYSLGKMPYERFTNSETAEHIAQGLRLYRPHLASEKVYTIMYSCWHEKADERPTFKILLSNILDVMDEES
structure (smiles),measurement,value
"C=CC(=O)N1CCC[C@@H](n2nc(-c3ccc(Oc4ccccc4)c(F)c3)c3cnccc32)C1 [Compound 51, (R)-1-(3-(3-(3-fluoro-4-phenoxyphenyl)-1H-pyrazolo[4,3-c]pyridin-1-yl)piperidin-1-yl)prop-2-en-1-one]",pIC50,7.00 to 8.00
"C=CC(=O)N1CCC[C@@H](n2nc(-c3ccc(Oc4cccc(F)c4C)cc3)c3cnccc32)C1 [Compound 16, (R)-1-(3-(3-(4-(3-fluoro-2-methylphenoxy)phenyl)-1H-pyrazolo[4,3-c]pyridin-1-yl)piperidin-1-yl)prop-2-en-1-one]",pIC50,7.00 to 8.00
"C=CC(=O)N1CCC[C@H](n2nc(-c3ccc(Oc4cccc(Cl)c4Cl)cc3)c3cnccc32)C1 [Compound 44, (S)-1-(3-(3-(4-(2,3-dichlorophenoxy)phenyl)-1H-pyrazolo[4,3-c]pyridin-1-yl)piperidin-1-yl)prop-2-en-1-one]",pIC50,> 8.00
"C=CC(=O)N1CCC[C@@H](n2nc(-c3ccc(Oc4cccc5c4OCO5)cc3)c3cnccc32)C1 [Compound 8, (R)-1-(3-(3-(4-(benzo[d][1,3]dioxol-4-yloxy)phenyl)-1H-pyrazolo[4,3-c]pyridin-1-yl)piperidin-1-yl)prop-2-en-1-one]",pIC50,6.00 to 7.00
"C=CC(=O)N1CCC[C@@H](n2nc(-c3ccc(N4CCC(N5CCCCC5)CC4)cc3)c3cnccc32)C1 [Compound 110, (R)-1-(3-(3-(4-([1,4′-bipiperidin]-1′-yl)phenyl)-1H-pyrazolo [4,3-c]pyridin-1-yl)piperidin-1-yl)prop-2-en-1-one]",pIC50,7.00 to 8.00
"CC#CC(=O)N1CCC[C@@H](n2nc(-c3ccc(Oc4cccc(OC)c4F)cc3)c3cncc(OCCN(C)C)c32)C1 [Compound 94, (R)-1-(3-(7-(2-(dimethylamino)ethoxy)-3-(4-(2-fluoro-3-methoxyphenoxy)phenyl)-1H-pyrazolo[4,3-c]pyridin-1-yl)piperidin-1-yl)but-2-yn-1-one]",pIC50,7.00 to 8.00
"C=CC(=O)N1CCC[C@@H](n2nc(-c3ccc(Oc4cccc(F)c4OC)cc3)c3cnccc32)C1 [Compound 50, (R)-1-(3-(3-(4-(3-fluoro-2-methoxyphenoxy)phenyl)-1H-pyrazolo[4,3-c]pyridin-1-yl)piperidin-1-yl)prop-2-en-1-one]",pIC50,7.00 to 8.00
"COc1cccc(Oc2ccc(-c3nn(C4CCC(C(=O)O)CC4)c4c(OC)cncc34)cc2)c1F (stereo not shown) [Compound 122, 4-(3-(4-(2-fluoro-3-methoxyphenoxy)phenyl)-7-methoxy-1H-pyrazolo[4,3-c]pyridin-1-yl)cyclohexanecarboxylic acid]",pIC50,> 8.00
"C=CC(=O)N1CC[C@@H](n2nc(-c3ccc(Oc4cccc(OC)c4F)cc3)c3cncc(Cl)c32)C1 [Compound 27, (R)-1-(3-(7-chloro-3-(4-(2-fluoro-3-methoxyphenoxy)phenyl)-1H-pyrazolo[4,3-c]pyridin-1-yl)pyrrolidin-1-yl)prop-2-en-1-one]",pIC50,7.00 to 8.00
"C=CC(=O)N1CCC[C@@H](n2nc(-c3ccc(Oc4cccc(OC)c4F)cc3)c3cncc(F)c32)C1 [Compound 70, (R)-1-(3-(7-fluoro-3-(4-(2-fluoro-3-methoxyphenoxy)phenyl)-1H-pyrazolo[4,3-c]pyridin-1-yl)piperidin-1-yl)prop-2-en-1-one]",pIC50,> 8.00
"C=CC(=O)N1CC[C@H](n2nc(-c3ccc(Oc4cccc(Cl)c4)cc3)c3cnccc32)C1 [Compound 36, (S)-1-(3-(3-(4-(3-chlorophenoxy)phenyl)-1H-pyrazolo[4,3-c]pyridin-1-yl)pyrrolidin-1-yl)prop-2-en-1-one]",pIC50,7.00 to 8.00
"C=CC(=O)N1CCC[C@@H](n2nc3ccncc3c2-c2ccc(Oc3cccc(F)c3Cl)cc2)C1 [Compound 39, (R)-1-(3-(3-(4-(2-chloro-3-fluorophenoxy)phenyl)-2H-pyrazolo[4,3-c]pyridin-2-yl)piperidin-1-yl)prop-2-en-1-one]",pIC50,7.00 to 8.00
"COc1cccc(Oc2ccc(-c3nn([C@@H]4CCCN(C(=O)C(=O)O)C4)c4c(OC)cncc34)cc2)c1F [Compound 119, (R)-2-(3-(3-(4-(2-fluoro-3-methoxyphenoxy)phenyl)-7-methoxy-1H-pyrazolo[4,3-c]pyridin-1-yl)piperidin-1-yl)-2-oxoacetic acid]",pIC50,7.00 to 8.00
